Measured values published in the C3SDB collision cross section collection.

Columns and labels:
[1] = instrument: DT, stepped-field
[2] = instrument: DT, single field, calibrated with Agilent tune mix (Agilent)

In the case of `Nc1c(O)cccc1C(=O)CC(N)C(=O)O` (racemic) [3-Hydroxy-DL-kynurenine], the “collision cross section (N2)” value ([1]; [M+H]+) is reported as 157.67 Å² and the “collision cross section (N2)” value ([1]; [M+Na]+) is reported as 160.83 Å².
With `OC[C@H]1O[C@@](CO)(OC[C@@]2(O[C@H]3O[C@H](CO)[C@@H](O)[C@H](O)[C@H]3O)O[C@H](CO)[C@@H](O)[C@@H]2O)[C@@H](O)[C@@H]1O` [1-Kestose] the “collision cross section (N2)” value ([1]; [M+Na]+) was 205.43 Å².
With `Nc1nc(=O)c2ncn([C@H]3C[C@H](O)[C@@H](COP(=O)(O)O)O3)c2[nH]1` [2'-Deoxyguanosine 5'-Monophosphate] the “collision cross section (N2)” value ([1]; [M+H]+) was 178.96 Å² and the “collision cross section (N2)” value ([1]; [M+Na]+) was 173.87 Å².
In the case of `NCCP(=O)(O)O` [2-Aminoethylphosphonate], the “collision cross section (N2)” value ([1]; [M+H]+) is reported as 132.21 Å².
For `Cc1ccc2cc3ccccc3cc2c1` [2-Methylanthracene], the “collision cross section (N2)” value ([1]; [M+H]+) was 138.61 Å².
With `Cc1ccc2ccccc2c1` [2-methylnaphthalene] the “collision cross section (N2)” value ([1]; [M+H]+) was 124.57 Å².
For `Cn1cncc1C[C@H](N)C(=O)O` [3-Methyl-L-histidine], the “collision cross section (N2)” value ([1]; [M+H]+) was 136.57 Å².
For `Cc1ncsc1CCO` [4-Methyl-5-Thiazolethanol], the “collision cross section (N2)” value ([1]; [M+H]+) was 145.34 Å².
For `CCCCC/C=C/C/C=C\C[C@@H]1O[C@@H]1C/C=C\CCCC(=O)O` [8(9)-EET], the “collision cross section (N2)” value ([1]; [M+Na]+) was 186.83 Å².
With `CCCCC/C=C\C/C=C\C=C\[C@@H](O)C/C=C\CCCC(=O)O` [8S-HETE] the “collision cross section (N2)” value ([1]; [M+Na]+) was 187.17 Å².
In the case of `CCCCC/C=C\C=C\C(=O)CCCCCCCC(=O)O` [9-OxoODE], the “collision cross section (N2)” value ([1]; [M+H]+) is reported as 184.2 Å² and the “collision cross section (N2)” value ([1]; [M+Na]+) is reported as 199.5 Å².
For `CCCCC/C=C\C[C@H]1O[C@H]1C/C=C\C/C=C\CCCC(=O)O` [11(12)-EET], the “collision cross section (N2)” value ([1]; [M+Na]+) was 187.87 Å².
In the case of `CCCCC/C=C\C[C@H](O)/C=C/C=C\C/C=C\CCCC(=O)O` [12S-HETE], the “collision cross section (N2)” value ([1]; [M+Na]+) is reported as 193.33 Å².
With `COc1ccc(-c2cc(=O)c3c(O)cc(O)cc3o2)cc1` [Acacetin] the “collision cross section (N2)” value ([1]; [M+H]+) was 167.06 Å².
With `O=C1C(=O)c2cccc3cccc1c23` [Acenaphthenequinone] the “collision cross section (N2)” value ([1]; [M+H]+) was 145.51 Å².
In the case of `C1=Cc2cccc3cccc1c23` [Acenaphthylene], the “collision cross section (N2)” value ([1]; [M+H]+) is reported as 125.71 Å².
With `CCCCC/C=C\C/C=C\C/C=C\C/C=C\CCCCCC(=O)O` [Adrenic Acid] the “collision cross section (N2)” value ([1]; [M+H]+) was 189.41 Å² and the “collision cross section (N2)” value ([1]; [M+Na]+) was 192.83 Å².
With `CCCCCCCCCCCCC=CC[C@@H](O)[C@H](COP(=O)([O-])OCC[N+](C)(C)C)NC(=O)CCCCCCCCCCCCCC` [SM(33:1)] the “collision cross section (N2)” value ([2]; [M+H]+) was 279.2 Å².
In the case of `CCCCCCCCCCCCCCCC(=O)N[C@@H](COP(=O)([O-])OCC[N+](C)(C)C)[C@H](O)CCCCCCCCCCCCCCC` [SM(34:0)], the “collision cross section (N2)” value ([2]; [M+HCOO]-) is reported as 282.3 Å², the “collision cross section (N2)” value ([2]; [M+H]+) is reported as 285 Å² and the “collision cross section (N2)” value ([2]; [M+Na]+) is reported as 284.8 Å².
With `CCCCCCCCCCCCC=CCC(=O)N[C@@H](COP(=O)([O-])OCC[N+](C)(C)C)[C@H](O)CC=CCCCCCCCCCCCC` [SM(34:2)] the “collision cross section (N2)” value ([2]; [M+H]+) was 281.4 Å².
In the case of `CCCCC/C=C\C/C=C\C/C=C\C/C=C\CCCCCC(=O)OC[C@@H](COC(=O)CCCCCCCCCCCCCCC)OC(=O)CCCCCCC/C=C\CCCCCCC` [TG(55:5)], the “collision cross section (N2)” value ([2]; [M+NH4]+) is reported as 324.6 Å².
With `CCCCC/C=C\C/C=C\C/C=C\CCCCCCC(=O)O[C@H](COC(=O)CCCC/C=C\C/C=C\C/C=C\CCCCC)COC(=O)CCCCCCCCC/C=C\CCCCCCCCCC` [TG(60:7)] the “collision cross section (N2)” value ([2]; [M+NH4]+) was 339 Å².
For `CC/C=C\C/C=C\C/C=C\C/C=C\C/C=C\CCCC(=O)O[C@H](COC(=O)CCCCCCC/C=C\C/C=C\C/C=C\CC)COC(=O)CCCCCCCCC/C=C\CCCCCCCCCC` [TG(60:9)], the “collision cross section (N2)” value ([2]; [M+NH4]+) was 336 Å².
For `CC/C=C\C/C=C\C/C=C\C/C=C\C/C=C\C/C=C\CCC(=O)OC[C@@H](COC(=O)CCCCCCC/C=C\C/C=C\C/C=C\CC)OC(=O)CCCCCCCC/C=C\C/C=C\C/C=C\CCCCC` [TG(62:12)], the “collision cross section (N2)” value ([2]; [M+NH4]+) was 337.5 Å².
